Results as given in publication PMC11951083, “Highly Specific Miniaturized Fluorescent Monoacylglycerol Lipase Probes Enable Translational Research” (Journal of the American Chemical Society, 2025).
Where two headings read alike, the source gives them in different places.

Experiments:
PCP = PCP (antagonist radioligand); settings: 10 µM
[1] = system: Ca2+ channel (L, diltiazem site); assay: Ca2+ channel (L, diltiazem site) (antagonist radioligand); settings: 10 µM
Estrogen ER alpha (h) = Estrogen ER alpha (h) (Homo sapiens, UniProt P03372); assay: Estrogen ER alpha (h) (agonist radioligand); settings: read-out: Inhibition Estrogen ER alpha (h) (agonist radioligand)
Chain of Estrogen ER alpha (h) (P03372 whole entry): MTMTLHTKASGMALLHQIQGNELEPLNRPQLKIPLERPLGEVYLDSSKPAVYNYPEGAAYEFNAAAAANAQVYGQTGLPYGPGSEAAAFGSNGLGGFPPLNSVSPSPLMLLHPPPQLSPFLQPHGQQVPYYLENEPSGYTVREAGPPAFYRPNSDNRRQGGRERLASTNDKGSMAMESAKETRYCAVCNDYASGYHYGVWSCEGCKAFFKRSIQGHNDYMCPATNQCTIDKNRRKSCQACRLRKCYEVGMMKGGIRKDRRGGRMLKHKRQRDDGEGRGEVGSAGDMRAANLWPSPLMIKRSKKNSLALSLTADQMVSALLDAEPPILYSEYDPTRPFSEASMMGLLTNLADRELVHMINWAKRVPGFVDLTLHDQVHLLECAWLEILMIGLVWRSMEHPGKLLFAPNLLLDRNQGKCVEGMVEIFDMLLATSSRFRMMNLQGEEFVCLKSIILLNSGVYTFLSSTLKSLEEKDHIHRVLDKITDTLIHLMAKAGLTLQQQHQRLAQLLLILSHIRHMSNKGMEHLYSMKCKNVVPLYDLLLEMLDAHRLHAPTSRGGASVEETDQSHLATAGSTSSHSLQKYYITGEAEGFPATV

Cl- channel (GABA-gated) = Cl- channel (GABA-gated) (antagonist radioligand); settings: 10 µM
[2] = target: T1, NanoLuc luciferase MAGL fusion protein (Homo sapiens, UniProt Q99685); assay: Cellular MAGL NanoBRET target engagement assay in live HEK293 cells; assay type: cell-based
T1 sequence (Q99685 1-303): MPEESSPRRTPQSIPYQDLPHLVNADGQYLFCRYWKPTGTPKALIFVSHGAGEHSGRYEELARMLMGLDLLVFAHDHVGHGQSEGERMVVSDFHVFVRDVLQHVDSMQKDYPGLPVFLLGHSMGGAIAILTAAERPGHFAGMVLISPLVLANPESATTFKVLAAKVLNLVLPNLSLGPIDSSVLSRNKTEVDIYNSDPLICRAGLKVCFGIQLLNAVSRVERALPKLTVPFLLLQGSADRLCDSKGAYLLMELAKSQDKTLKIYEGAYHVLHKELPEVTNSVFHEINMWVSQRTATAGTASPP
Protocol: This assay was performed as first described before.20
Compounds were profiled by a novel cellular MAGL NanoBRET™ Target Engagement assay, which measures the apparent affinity of test compounds by competitive displacement of a Roche -developed Tracer (WO2021058443, Example 2 121, or probe 4a, respectively), reversibly bound to a NanoLuc ® luciferase MAGL fusion protein in cells.
A HEK293A stable cell line expressing NanoLuc_MAGL was established at Roche and assigned as HEK293A_NanoLuc_MAGL clone #43. A fixed concentration of tracer is added to cells expressing the NanoLuc®_MAGL fusion protein to generate a BRET reporter complex. The introduction of competing compounds results in a dose -dependent decrease in NanoBRET™ energy transfer, which allows quantification of the intracellular affinity of the target protein for the test compound.
HEK293A_NanoLuc_MAGL clone #43 cells were cultured in DMEM (Gibco 31966) with 10% FBS and 800 ug/ml G418. The NanoBRET assay was performed by seeding 5000 cells/well in Costar low - volume white 384-well plate in assay buffer (1% FBS in HBSS), followed by adding the tracer (50 nM Example 21 or 100 nM 4a final concentration) and serial dilutions of test compounds. After 2 hours of incubation, Nanoluciferase substrates and extracellular inhibitors were added following the manufacturer's protocol (Promega, #N2520), and the NanoBRET signaling were quantified with the Paradigm (Molecular Devices).

MAGL = target: T2, MAGL (Homo sapiens, UniProt Q99685); assay: Surface plasmon resonance on human MAGL; assay type: binding; settings: SPR
T2 sequence (Q99685 1-303): T1 sequence (Q99685 1-303)
Protocol: High throughput kinetic solubility measurement was performed as previously described in the […]
Surface plasmon resonance
EDC/NHS coupling with a final protein concentration of 0.06 mg/mL: 10 mM acetate pH 5.5 + 10µM RO7224999-000-001(reference binder). No quenching was applied after immobilization, but the surface was left with a running buffer for 1 h to hydrolyze and stabilize.
Running buffer: […], 150 mM NaCl, 0.05% P20, pH 7.4 + 50 µM EDTA, 1% DMSO Instrument:
Biacore T200 Sensorchip: CM5 Temperature: 18 °C concentration series: 5 concentration 3-fold dilution, top conc 0.5 µM, contact time 180s, dissociation time 300s before each compound a blank injection for double referencing was measured. Each compound was followed by 9 injections of Control, RO7283571 (60 s contact time, 200 s dissociation time, 10 µM) to validate surface activity and recovery to determine off rates.
Dissociation was trimmed for compounds showing faster kinetics to suppress the over-fitting of baseline drift. Data was fitted with 1:1 model with an added drift parameter to improve fit quality and to compensate from insufficient drift correction with the double referencing. Off rates (koff) were determined by recovery of reference binding. The signal was first blank subtracted, and the corrected chaser response was plotted versus time and fitted to an exponential decay model. […]

[3] = live HEK293 cells, read-out: IC50 nanoBRET

SMILES	Inhibition PCP (antagonist radioligand) (PCP)	Inhibition Ca2+ channel (L, diltiazem site) (antagonist radioligand) [1]	inhibition at 10 µM (Estrogen ER alpha (h))	Inhibition Cl- channel (GABA-gated) (antagonist radioligand) (Cl- channel (GABA-gated))	IC50 [2, 3]	residence time (MAGL)	IC50 [2]
O=C(OC(C(F)(F)F)C(F)(F)F)N1CC2(CC(CC3=C4C=CC(c5ccc[nH]5)=[N+]4[B-](F)(F)n4cccc43)C2)C1 [Compound 2a]	-18,80%	9,70%	-13.7%	40,80%	–	–	–
O=C1CO[C@H]2CCN(C(=O)N3CC4(CC(CC5=C6C=CC(c7ccc[nH]7)=[N+]6[B-](F)(F)n6cccc65)C4)C3)C[C@H]2N1 [Compound 4a]	3,60%	6,20%	-2.5%	40,30%	–	–	–
O=C(O[C@H](CO)C(F)(F)F)N1CC2(CC(CC3=C4C=CC=[N+]4[B-](F)(F)n4cccc43)C2)C1 [Compound 1]	6,90%	20,60%	17.8%	41,90%	276 nM	–	–
O=C(OC(C(F)(F)F)C(F)(F)F)N1CC2(CC(CC3=C4C=CC=[N+]4[B-](F)(F)n4cccc43)C2)C1 [Compound 2]	-5,50%	-14,00%	-0.8%	51,90%	720 nM	–	–
O=C1CO[C@H]2CCN(C(=O)N3CC4(CC(CC5=C6C=CC=[N+]6[B-](F)(F)n6cccc65)C4)C3)C[C@H]2N1 [Compound 4]	–	–	–	–	196 nM	37 min	–
O=C(N1CC2(CC(CC3=C4C=CC=[N+]4[B-](F)(F)n4cccc43)C2)C1)N1CC2(CC(n3cnc(C4CC4)n3)C2)C1 [Compound 5]	-14,20%	1,70%	35%	20,90%	–	44 min	85 nM
